System: Japanese patients with R/R iNHL
Assay: Phase 1 dose-escalation study: safety and tolerability (TEAEs, DLTs)
Type: in vivo
Text: Japanese patients aged ≥ 20 years with R/R iNHL histologically confirmed as FL, nodal MZL, extra-nodal MZL of mucosa-associated lymphoid tissue, small lymphocytic lymphoma, lymphoplasmacytic lymphoma, Waldenström’s macroglobulinemia, or equivalent, according to World Health Organization classification, were eligible for this study. Other key eligibility criteria included being PI3K inhibitor therapy-naïve and an Eastern Cooperative Oncology Group performance status of 0 or 1. Further details of inclusion and exclusion criteria are provided in Supplementary Table 1.
This was a multicenter, open-label, dose-escalation, phase 1 study in Japan. All patients received oral zandelisib once daily at the same time each day, at least 1 h before or 2 h after a meal (CS: continuous schedule). Each treatment cycle was 28 days. Definitions of the DLTs described in this study can be found in Supplementary Table 2. The observation period for DLTs was from day 1 of Cycle 1 to day 1 of Cycle 2. Zandelisib was administered until disease progression or unacceptable toxicity. In the event of an AE, patients could be switched to IDT. In the case of disease progression while receiving IDT, patients could be switched back to CS per the investigator’s discretion.
A starting dose of 45 mg was set for investigating patient safety. This study adopted a standard 3 + 3 design. […] If DLTs occurred in 2 or more patients, the study was planned to be suspended pending a safety evaluation. If a DLT occurred in 1 patient, 3 further patients were added to cohort 1. If DLTs occurred in 0/3 or 1/6 patients in cohort 1, dosing in cohort 2 commenced (n = 6; 60 mg/day). If the incidence of DLTs in cohort 2 was ≤ 1/6, the maximum tolerated dose was not determined, and the dose in cohort 2 was to be selected as the recommended Japanese phase 2 dose.
The primary endpoint was the safety [number of patients with treatment-emergent adverse events (TEAEs), based on Common Terminology Criteria for Adverse Events version 5.0] and tolerability (including laboratory values, vital signs, and electrocardiogram performance) of zandelisib in Japanese patients. Hepatobiliary disorder, aspartate/alanine (AST/ALT) increased, diarrhea/colitis, organizing pneumonia, stomatitis, or rash were defined as irAEs in this manuscript. Secondary endpoints included PK (plasma concentrations and PK parameters) and the efficacy of zandelisib. […] The PK parameters for Cycle 1 day 1 and Cycle 2 day 1 were calculated for each patient by non-compartmental analysis. PK parameters included maximum plasma drug concentration (Cmax), area under the plasma concentration–time curve (AUC) from time zero to the last measurable point (AUC0–t), the AUC from time zero to infinity (AUC0-inf), and terminal half-life (t1/2).

CN1CCC(c2ccccc2CC(C)(C)Nc2nc(N3CCOCC3)nc(-n3c(C(F)F)nc4ccccc43)n2)CC1 [zandelisib]
TEAE Oropharyngeal pain, Grade ≥ 3 (45 mg, n = 3): 0 n (%)
TEAE Pancreatitis, All grades (45 mg, n = 3): 1 (33.3) n (%)
TEAE Pancreatitis, Grade ≥ 3 (45 mg, n = 3): 1 (33.3) n (%)
TEAE Pharyngeal paresthesia, All grades (45 mg, n = 3): 0 n (%)
TEAE Pharyngeal paresthesia, Grade ≥ 3 (45 mg, n = 3): 0 n (%)
TEAE Pruritus, All grades (45 mg, n = 3): 0 n (%)
TEAE Pruritus, Grade ≥ 3 (45 mg, n = 3): 0 n (%)
TEAE Psychiatric disorders (SOC), All grades (45 mg, n = 3): 1 (33.3) n (%)
TEAE Psychiatric disorders (SOC), Grade ≥ 3 (45 mg, n = 3): 0 n (%)
TEAE Rash maculopapular, All grades (45 mg, n = 3): 1 (33.3) n (%)
TEAE Rash maculopapular, Grade ≥ 3 (45 mg, n = 3): 0 n (%)
TEAE Rash, All grades (45 mg, n = 3): 1 (33.3) n (%)
TEAE Rash, Grade ≥ 3 (45 mg, n = 3): 0 n (%)
TEAE Renal and urinary disorders (SOC), All grades (45 mg, n = 3): 1 (33.3) n (%)
TEAE Renal and urinary disorders (SOC), Grade ≥ 3 (45 mg, n = 3): 0 n (%)
TEAE Renal impairment, All grades (45 mg, n = 3): 1 (33.3) n (%)
TEAE Renal impairment, Grade ≥ 3 (45 mg, n = 3): 0 n (%)
TEAE Respiratory, thoracic, and mediastinal disorders (SOC), All grades (45 mg, n = 3): 1 (33.3) n (%)
TEAE Respiratory, thoracic, and mediastinal disorders (SOC), Grade ≥ 3 (45 mg, n = 3): 1 (33.3) n (%)
TEAE Skin and subcutaneous tissue disorders (SOC), All grades (45 mg, n = 3): 3 (100.0) n (%)
TEAE Skin and subcutaneous tissue disorders (SOC), Grade ≥ 3 (45 mg, n = 3): 0 n (%)
TEAE Stomatitis, All grades (45 mg, n = 3): 1 (33.3) n (%)
TEAE Stomatitis, Grade ≥ 3 (45 mg, n = 3): 1 (33.3) n (%)
TEAE Subcutaneous abscess, All grades (45 mg, n = 3): 0 n (%)
TEAE Subcutaneous abscess, Grade ≥ 3 (45 mg, n = 3): 0 n (%)
TEAE Tinnitus, All grades (45 mg, n = 3): 1 (33.3) n (%)
TEAE Tinnitus, Grade ≥ 3 (45 mg, n = 3): 0 n (%)
TEAE Urticaria, All grades (45 mg, n = 3): 1 (33.3) n (%)
TEAE Urticaria, Grade ≥ 3 (45 mg, n = 3): 0 n (%)
TEAE Vomiting, All grades (45 mg, n = 3): 0 n (%)
TEAE Vomiting, Grade ≥ 3 (45 mg, n = 3): 0 n (%)
TEAE WBC count decreased, All grades (45 mg, n = 3): 2 (66.7) n (%)
TEAE WBC count decreased, Grade ≥ 3 (45 mg, n = 3): 0 n (%)
Grade 3 irAEs (60 mg): 5 patients
TEAE ALT increased, All grades (60 mg, n = 6): 1 (16.7) n (%)
TEAE ALT increased, Grade ≥ 3 (60 mg, n = 6): 0 n (%)
TEAE AST increased, All grades (60 mg, n = 6): 3 (50.0) n (%)
TEAE AST increased, Grade ≥ 3 (60 mg, n = 6): 0 n (%)
TEAE Abdominal discomfort, All grades (60 mg, n = 6): 1 (16.7) n (%)
TEAE Abdominal discomfort, Grade ≥ 3 (60 mg, n = 6): 0 n (%)
TEAE Abdominal pain upper, All grades (60 mg, n = 6): 0 n (%)
TEAE Abdominal pain upper, Grade ≥ 3 (60 mg, n = 6): 0 n (%)
TEAE Amylase increased, All grades (60 mg, n = 6): 0 n (%)
TEAE Amylase increased, Grade ≥ 3 (60 mg, n = 6): 0 n (%)
TEAE Anemia, All grades (60 mg, n = 6): 0 n (%)
TEAE Anemia, Grade ≥ 3 (60 mg, n = 6): 0 n (%)
TEAE Arthralgia, All grades (60 mg, n = 6): 1 (16.7) n (%)
TEAE Arthralgia, Grade ≥ 3 (60 mg, n = 6): 0 n (%)
TEAE Back pain, All grades (60 mg, n = 6): 0 n (%)
TEAE Back pain, Grade ≥ 3 (60 mg, n = 6): 0 n (%)
TEAE Blepharitis, All grades (60 mg, n = 6): 1 (16.7) n (%)
TEAE Blepharitis, Grade ≥ 3 (60 mg, n = 6): 0 n (%)
TEAE Blood and lymphatic system disorders (SOC), All grades (60 mg, n = 6): 0 n (%)
TEAE Blood and lymphatic system disorders (SOC), Grade ≥ 3 (60 mg, n = 6): 0 n (%)
TEAE Blood creatinine increased, All grades (60 mg, n = 6): 1 (16.7) n (%)
TEAE Blood creatinine increased, Grade ≥ 3 (60 mg, n = 6): 0 n (%)
TEAE Bradycardia, All grades (60 mg, n = 6): 0 n (%)
TEAE Bradycardia, Grade ≥ 3 (60 mg, n = 6): 0 n (%)
TEAE CMV test positive, All grades (60 mg, n = 6): 2 (33.3) n (%)
TEAE CMV test positive, Grade ≥ 3 (60 mg, n = 6): 0 n (%)
TEAE Cardiac disorders (SOC), All grades (60 mg, n = 6): 0 n (%)
TEAE Cardiac disorders (SOC), Grade ≥ 3 (60 mg, n = 6): 0 n (%)
TEAE Conjunctivitis, All grades (60 mg, n = 6): 1 (16.7) n (%)
TEAE Conjunctivitis, Grade ≥ 3 (60 mg, n = 6): 0 n (%)
TEAE Constipation, All grades (60 mg, n = 6): 2 (33.3) n (%)
TEAE Constipation, Grade ≥ 3 (60 mg, n = 6): 0 n (%)
TEAE Cough, All grades (60 mg, n = 6): 1 (16.7) n (%)
TEAE Cough, Grade ≥ 3 (60 mg, n = 6): 0 n (%)
TEAE Decreased appetite, All grades (60 mg, n = 6): 0 n (%)
TEAE Decreased appetite, Grade ≥ 3 (60 mg, n = 6): 0 n (%)
TEAE Diarrhea, All grades (60 mg, n = 6): 2 (33.3) n (%)
TEAE Diarrhea, Grade ≥ 3 (60 mg, n = 6): 2 (33.3) n (%)
TEAE Drug hypersensitivity, All grades (60 mg, n = 6): 1 (16.7) n (%)
TEAE Drug hypersensitivity, Grade ≥ 3 (60 mg, n = 6): 0 n (%)
TEAE Drug-induced liver injury, All grades (60 mg, n = 6): 1 (16.7) n (%)
TEAE Drug-induced liver injury, Grade ≥ 3 (60 mg, n = 6): 1 (16.7) n (%)
TEAE Dry eye, All grades (60 mg, n = 6): 0 n (%)
TEAE Dry eye, Grade ≥ 3 (60 mg, n = 6): 0 n (%)
TEAE Dry skin, All grades (60 mg, n = 6): 1 (16.7) n (%)
TEAE Dry skin, Grade ≥ 3 (60 mg, n = 6): 0 n (%)
TEAE Dysgeusia, All grades (60 mg, n = 6): 0 n (%)
TEAE Dysgeusia, Grade ≥ 3 (60 mg, n = 6): 0 n (%)
TEAE Dyspnea, All grades (60 mg, n = 6): 0 n (%)
TEAE Dyspnea, Grade ≥ 3 (60 mg, n = 6): 0 n (%)
TEAE Ear and labyrinth disorders (SOC), All grades (60 mg, n = 6): 0 n (%)
TEAE Ear and labyrinth disorders (SOC), Grade ≥ 3 (60 mg, n = 6): 0 n (%)
TEAE Eczema, All grades (60 mg, n = 6): 1 (16.7) n (%)
TEAE Eczema, Grade ≥ 3 (60 mg, n = 6): 0 n (%)
TEAE Eosinophil count increased, All grades (60 mg, n = 6): 0 n (%)
TEAE Eosinophil count increased, Grade ≥ 3 (60 mg, n = 6): 0 n (%)
TEAE Erythema multiforme, All grades (60 mg, n = 6): 1 (16.7) n (%)
TEAE Erythema multiforme, Grade ≥ 3 (60 mg, n = 6): 0 n (%)
TEAE Eye disorders (SOC), All grades (60 mg, n = 6): 1 (16.7) n (%)
TEAE Eye disorders (SOC), Grade ≥ 3 (60 mg, n = 6): 0 n (%)
TEAE Flank pain, All grades (60 mg, n = 6): 1 (16.7) n (%)
TEAE Flank pain, Grade ≥ 3 (60 mg, n = 6): 0 n (%)
TEAE GGT increased, All grades (60 mg, n = 6): 1 (16.7) n (%)
TEAE GGT increased, Grade ≥ 3 (60 mg, n = 6): 1 (16.7) n (%)
TEAE Gastrointestinal disorders (SOC), All grades (60 mg, n = 6): 4 (66.7) n (%)
TEAE Gastrointestinal disorders (SOC), Grade ≥ 3 (60 mg, n = 6): 2 (33.3) n (%)
TEAE General disorders and administration site conditions (SOC), All grades (60 mg, n = 6): 0 n (%)
TEAE General disorders and administration site conditions (SOC), Grade ≥ 3 (60 mg, n = 6): 0 n (%)
TEAE Hepatic function abnormal, All grades (60 mg, n = 6): 1 (16.7) n (%)
TEAE Hepatic function abnormal, Grade ≥ 3 (60 mg, n = 6): 1 (16.7) n (%)
TEAE Hepatobiliary disorders (SOC), All grades (60 mg, n = 6): 2 (33.3) n (%)
TEAE Hepatobiliary disorders (SOC), Grade ≥ 3 (60 mg, n = 6): 2 (33.3) n (%)
TEAE Herpes simplex, All grades (60 mg, n = 6): 0 n (%)
TEAE Herpes simplex, Grade ≥ 3 (60 mg, n = 6): 0 n (%)
TEAE Herpes zoster, All grades (60 mg, n = 6): 1 (16.7) n (%)
TEAE Herpes zoster, Grade ≥ 3 (60 mg, n = 6): 0 n (%)
TEAE Hypoesthesia, All grades (60 mg, n = 6): 0 n (%)
TEAE Hypoesthesia, Grade ≥ 3 (60 mg, n = 6): 0 n (%)
TEAE Hypogammaglobulinemia, All grades (60 mg, n = 6): 0 n (%)
TEAE Hypogammaglobulinemia, Grade ≥ 3 (60 mg, n = 6): 0 n (%)
TEAE Immune system disorders (SOC), All grades (60 mg, n = 6): 1 (16.7) n (%)
TEAE Immune system disorders (SOC), Grade ≥ 3 (60 mg, n = 6): 0 n (%)
